Tests used:
plasma clots = assay: Plasma clot lysis assay; parameters: species or system human; details: 100 μM; for % Plasma Clot lysis: clots formed about 20 h, plasminogen and urokinase about 4 h
Method: For this assay, 50 μl of one of a series of concentrations of iodoacetic acid, cerulenin, or ZG-1400a was added to 0.5 ml human citrated plasma (prepared from one blood donor) in 5 ml polypropylene tubes. The ZG-1400a and iodoacetic acid were individually prepared in 10% DMSO and tested using half-log dilutions, starting at a final assay concentration of 100 μM and diluting to 10 μM. Cerulenin was prepared in 10% ethanol and tested using half-log dilutions, starting at a final assay concentration of 100 μM and diluting to 10 μM.
Approximately 10^6 cpm ^125 I-fibrinogen (Amersham), 50 mM CaCl2 (20 mM above citrate concentration) and 5 units thrombin (bovine, Enzyme Research Labs) were added to each test and control tube. The tubes were incubated while rocking for 20 h at 37° C. Plasma clots formed in the tubes were washed three times with about 1 ml phosphate buffered saline (PBS). The plasma clots in each tube were counted after the PBS washes.
Approximately 2 ml of 50 mM Tris, pH 7.4, containing 50 mM NaCl, 28 μg plasminogen (human, Calbiochem), and 280 ng urokinase (human, Calbiochem) were added to the clots in test and control tubes. At 1, 2, and 4 h intervals, 25 μl aliquots of the samples were removed from each tube and counted.
The values shown in Table 3 represent the amount of lysis after plasma clots were formed for about 20 h and exposed to plasminogen and urokinase for about 4 h.

papain = biological target: T1, papain (Carica papaya, UniProt P00784); assay: Papain inhibition assay; format: biochemical; details: for Papain inhibition (result in words, IC50 table): 100 μM to 10 nM, 30 min at 37° C.
T1 construct: purchased Boehringer Mannheim
T1 sequence (P00784 134-345): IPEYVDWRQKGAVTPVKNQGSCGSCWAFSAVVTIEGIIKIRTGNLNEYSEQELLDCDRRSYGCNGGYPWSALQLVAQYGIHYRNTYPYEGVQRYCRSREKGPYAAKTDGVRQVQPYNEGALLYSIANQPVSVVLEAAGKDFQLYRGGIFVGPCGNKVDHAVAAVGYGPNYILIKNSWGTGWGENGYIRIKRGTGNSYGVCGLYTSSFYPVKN
Method: For the papain inhibition assay, a buffer containing 0.1M NaPO4 and 2.5 mM EDTA at about pH 7.0 was used. An Azocoll™ solution was prepared by adding 5 mg Azocoll™ (Calbiochem; an insoluble, powdered cowhide to which a bright red dye is attached (azo-dye-bound collagen)) to the buffer while stirring. The Azocoll was prewarmed to about 37° C. 10 μl of 0.1M L-cysteine, 10 μl of 50 μg/ml papain (Boehringer Mannheim), 0.5 ml of Azocoll solution, and 50 μl of one of a series of concentrations of ZG-1400a, iodoacetamide, iodoacetic acid, cerulenin, or 50 μl of the DMSO or ethanol negative controls were added to duplicate 13×75 mm glass tubes. The ZG-1400a, iodoacetamide, and iodoacetic acid were individually prepared in 10% DMSO and tested using half-log dilutions, starting at a final assay concentration of 100 μM and diluting to 10 nM. Cerulenin was prepared in 10% ethanol and tested using half-log dilutions, starting at a final assay concentration of 100 μM and diluting to 10 nM. A negative (no inhibition) control for ZG-1400a, iodoacetamide and iodoacetic acid was 50 μl of 10% DMSO to give a final assay concentration of 1% DMSO in each control tube. A negative control for cerulenin was 50 μl of 10% ethanol to give a final assay concentration of 1% ethanol in each control tube. The test and control tubes then were incubated for 30 min at 37° C. in an agitated water bath.
After incubation, all of the tubes were centrifuged at 2000 RPM for 5 min. The supernatant was removed and its absorbance was read at 520 nm on a Beckman DU640 spectrophotometer to determine the amount of papain inhibition.

Factor IX (FIX) = assay: Factor IX inhibition assay; format: biochemical; details: up to 100 μM, absorbance at 405 nm
Method: 60 μl buffer, 10 μl of 40 nM FIX, and 10 μl of one of a series of dilutions of ZG-1400a were added to plate wells. The buffer contained 150 mM NaCl, 5 mM CaCl2, 25 mM Tris, pH 8.0, and 0.1% polyethyleneglycol (PEG). The ZG-1400a was prepared in 10% DMSO and tested using half-log dilutions, starting at a final assay concentration of 100 μM and diluting to 1 nM. A negative (no inhibition) control contained 60 μl buffer, 10 μl of 40 nM FIX, and enough DMSO to give a 1% final DMSO concentration.
The test and control wells were incubated approximately 10 min at room temperature. After incubation, approximately 10 μl of a mixture containing 200 nM FX (Walt Kiesel, University of New Mexico), 500 pM FVIII (Novo Nordisk) and 10 μM PCPS (phosphatidylcholine:phosphatidylserine (Sigma) in a 1:1 ratio) was added to each well. Then 10 μl of 1 mM S2765 substrate (Kabi) was added to each well.
In this assay, FIX converts FX to FXa. […] This determination was made by reading absorbance at 405 nm on a ThermoMax microplate reader.

thrombin = assay: Thrombin inhibition assay; format: biochemical, bovine; details: up to 100 μM, absorbance at 405 nm
Method: For the FVIIa, FXa and thrombin inhibition assays described below, an inhibition assay buffer containing 50 mM Tris, 5 mM CaCl2, 150 mM NaCl, 0.1% Tween 20, and 0.1% BSA (albumin, bovine, Sigma fraction V (Sigma)) at about pH 8.0 was used 2. For each of the inhibition assays, the total reaction volume was 100 μl and the assays were performed in 96-well plates.
About 30 μl inhibition assay buffer, 50 μl of 2 μg/ml thrombin (bovine, Enzyme Research Labs), and 10 μl of one of a series of dilutions of ZG-1400a were added to plate wells. The ZG-1400a was prepared in 10% DMSO and tested using half-log dilutions, starting at a final assay concentration of 100 μM and diluting to 1 nM. A negative (no inhibition) control contained 30 μl inhibition assay buffer, 50 μl of 2 μg/ml thrombin, and enough DMSO to give a 1% final DMSO concentration.
The test and control wells were incubated for about 10 min at room temperature. After the incubation period, 20 μl of 1 mM SPECTROZYME TH (H-D-hexahydrotyrosyl-L-alanyl-L-arginine-p-nitroanilide-diacetate salt, American Diagnostica, Inc., New York, N.Y.) was added to each well.
This determination was made by reading absorbance at 405 nm on a ThermoMax microplate reader.

| SMILES | susceptibility of plasma clots to lysis by plasminogen and urokinase (plasma clots) | % Plasma Clot lysis (plasma clots) [%] | Papain inhibition (result in words, IC50 table) (papain) | Papain inhibition (result in words, IC50 table) (papain; listed as cerulenin) | IC50 (papain) [nM] | inhibition of FIX activity (Factor IX (FIX)) | inhibition of thrombin activity (thrombin) | Papain inhibition (result in words, IC50 table) (papain; listed as ZG-1400a) | Papain inhibition (result in words, IC50 table) (papain; listed as ZG-1440) |
| --- | --- | --- | --- | --- | --- | --- | --- | --- | --- |
| CC=CCC=CCCC(=O)C1OC1C(N)=O (stereo not drawn) [Cerulenin, 2,3-epoxy-4-oxo-7,10-dodecadienamide] | significantly more susceptible to lysis | 97 | No inhibition | did not inhibit papain activity |  |  |  |  |  |
| NC(=O)CI [Iodoacetamide, iodoacetamide] |  |  | did cause inhibition |  | 10 |  |  |  |  |
| C[C@@H]1CCC/C=C\C(=O)Cc2cc(O)cc(O)c2C(=O)O1 [ZG-1400, R(-) enantiomer of cis-resorcylide] | significantly more susceptible to lysis | 46 |  |  |  | Not even the highest concentration of ZG-1400a assayed (100 μM) inhibited FIX activity | not even the highest concentration of ZG-1400a assayed (100 μM) inhibited thrombin activity | did not inhibit papain activity | No inhibition |
